US20240041842A1, “PHARMACEUTICAL COMPOSITION FOR INHIBITING CANCER METASTASIS” (INDUSTRY-ACADEMIC COOPERATION FOUNDATION, YONSEI UNIVERSITY, priority 2021, published 2024)

Key:
Format in all cases: cell-based, human
Intracellular acetyl-CoA = assay: Acetyl-CoA measurement; settings: KRAS-mutant pancreatic cancer cells; 100 uM chloroquine, 24 hours
Protocol: Intracellular acetyl-CoA levels were calculated in the pmol range using the PicoProbe Acetyl-CoA Assay Kit (Biovision, K317). […] After correcting the background in all readings, the value of each sample was determined and normalized to the protein concentration of each sample.

[1] = tested on: total protein acetylation; assay: Western blot of total protein acetylation; settings: HBEC-KL; 50 uM chloroquine, 24 hours; same effect = reduced
Protocol: Cells were harvested, washed with PBS, and lysed on ice with RIPA buffer containing protease and phophatase inhibitor cocktail (GenDEPOT). After 15 minutes of incubation, the cell lysates were centrifuged at 15,000 rpm at 4° C. for 10 minutes. Protein concentration was measured by Bradford assay (Bio-rad, 500-0006). Equal amounts of total protein were placed on an SDS gel electrophoresis and transferred to a PVDF membrane (Bio-rad). The membrane was blocked with 5% skim milk for 1 hour at room temperature and incubated overnight at 4° C. with primary antibody in a buffer containing 0.1% Tween-20. Subsequently, the membrane was washed three times with Tween-PBS buffer and incubated for 1 hour at room temperature using a secondary antibody diluted in blocking buffer containing 0.1% Tween-20. Subsequently, the membrane was washed three times for 10 minutes each using Tween-TBS. Densitometry of Western blots was measured using ImageJ software.

SNAI1 gene = assay: Real-time PCR of SNAI1 gene; settings: HBEC-KL cell line; 50 uM chloroquine, 24 hours
Protocol: After synthesizing complementary DNA (cDNA) using the TOPscript·8 cDNA synthesis kit (Enzynomics, EZ0054), gRT-PCR was performed with TCPreal™ gRCR 2× PreMIX (SYBR Green with low ROX) (Enzynomics, RT501M). GAPDH and beta-actin were used for RNA normalization. qRT-PCR was performed with a StepOne Plus (Applied Biosystems) instrument.

LC3 = assay: Autophagic flux (LC3 Western blot, mRFP-GFP-LC3 lysosomal delivery assay); settings: HBEC-KL cells; 50 uM chloroquine for 6 hours
acetylated Snail = assay: Immunoprecipitation-immunoblot of acetylated Snail; settings: KRAS-mutant pancreatic cancer cells; 100 uM chloroquine, 24 hours
Protocol: Cell lysates (1 μg protein) were incubated overnight at 4° C. on anti-FLAG® M2 Affinity Gel (Sigma, A2220) or anti-acetyl-lysine antibody coated agarose (ImmuneChem Pharmaceuticals, ICP0388). The immunoprecipitate was then washed three times in IP buffer, and the immunoprecipitated complex was dissolved and separated by boiling in IP buffer for 5 minutes.
For SDS-PAGE electrophoresis, the immunoprecipitated complex was transferred to a nitrocellulose membrane and the membrane was blocked and then incubated for 1 hour at room temperature with Primary antibody and secondary antibody (VeriBlot for IP Detection Reagent (HRP) (Abcam, #ab131366), and anti-mouse IgG tor IP (HRP) (Abeam, #ab131368)).
After washing 3 times, the membrane was incubated with the secondary antibody.

Snail = assay: Western blot of Snail protein; settings: HBEC-KL cell line; chloroquine 12 to 48 hours
[2] = tested on: KRAS-mutant pancreatic cancer cells; assay: Matrigel invasion assay, pancreatic cancer cell lines; settings: 100 uM chloroquine, 24 hours
Protocol: FIG. 12C illustrates changes in matrigel invasiveness after treating the pancreatic cancer cell line with 100 uM chloroquine (CQ) for 24 hours, and the bright-field micrographs of cells infiltrating through the matrigel coated transwell membrane (top) and quantification results (bottom) are shown.
For the 2D invasion assay, the inserts were pre-coated with 300 μg/ml Matrigel (Coming, 354234). After staining with […] dye (Bio-Rad, 1450013), 1×10^5 live cells per 8-um-pore cell-culture insert (Costar. 3422) were seeded in 0.5% ACL medium. 10% ACL medium was added to the outside of the insert. In the case of lung cancer and pancreatic cancer cell lines, after inoculation in 1% RPMI medium, 20% RPMI medium was added to the outside of the insert. Plates were incubated for 24 hours at 37° C. After incubation, the insert was fixed with 3.7% PFA, washed, stained with 0.4% crystal violet, and the upper membrane was washed and dried.

CCN(CC)CCCC(C)Nc1ccnc2cc(Cl)ccc12 (stereo not shown) [CQ, chloroquine]
acetyl-CoA (Intracellular acetyl-CoA): reduced
overall protein acetylation [1]: the same effect
SNAI1 mRNA expression level (SNAI1 gene): no change
LC3-II accumulation (LC3): high levels
acetylated Snail (acetylated Snail): reduced
expression level of Snail protein (Snail): reduced
2D Matrigel transwell invasion [2]: reduced
